Experimental data: article PMC9000413, “Isolation and Structural Elucidation of Compounds from Pleiocarpa bicarpellata and Their In Vitro Antiprotozoal Activity” (Molecules, 2022)
Read-outs that look alike come from different tables or passages of the source.

Experiments:
P. falciparum [1] = assay: In vitro antiplasmodial assay (P. falciparum NF54, intraerythrocytic); conditions: for IC50: Plasmodium falciparum, NF54, read-out: IC50 P. falciparum; for selectivity ratio: rat
Experimental: The in vitro activity was assessed on T. b. rhodesiense (STIB900, bloodstream forms), T. cruzi (Tulahuen C2C4, intracellular amastigotes), L. donovani (MHOM-ET-67/L82, axenically grown amastigotes), P. falciparum (NF54, intraerythrocytic), and L6 cells (rat skeletal myoblasts) as previously described. Results are expressed in µg/mL for extracts and in µM for pure compounds.

P. falciparum [2] = tested on: P. falciparum; set-up: method as in PMID 11378289; conditions: alkaloids from the methanol root extract of P. mutica; cited from earlier work
[3] = Cytotoxicity against rat skeletal myoblast L6 cells; assay type: cell-based
Experimental: (§1) The in vitro activity was assessed on T. b. rhodesiense (STIB900, bloodstream forms), T. cruzi (Tulahuen C2C4, intracellular amastigotes), L. donovani (MHOM-ET-67/L82, axenically grown amastigotes), P. falciparum (NF54, intraerythrocytic), and L6 cells (rat skeletal myoblasts) as previously described [42].

L. donovani = assay: In vitro antileishmanial assay (L. donovani MHOM-ET-67/L82, axenically grown amastigotes); assay type: cell-based, Leishmania donovani; conditions: for IC50: Leishmania donovani, pure compounds and reference drug, mean of two independent assays, axenically grown amastigotes
Experimental: as §1

P. berghei = tested on: P. berghei; set-up: method as in PMID 11378289; conditions: in vivo mouse model, daily doses of 25 mg/kg/day, compared to untreated control mice; cited from earlier work
T. cruzi [4] = tested on: T. cruzi; set-up: method as in PMID 25233577; conditions: cited from earlier work
L. infantum = tested on: L. infantum; set-up: method as in PMID 25233577; conditions: cited from earlier work
T. b. rhodesiense = assay: In vitro antitrypanosomal assay (T. b. rhodesiense STIB900, bloodstream forms); assay type: cell-based; conditions: Trypanosoma brucei
Experimental: as §1

T. cruzi [5] = assay: In vitro antitrypanosomal assay (T. cruzi Tulahuen C2C4, intracellular amastigotes); assay type: cell-based; conditions: Trypanosoma cruzi
Experimental: as §1

T. cruzi [6] = tested on: T. cruzi; set-up: method as in PMID 26755152; conditions: previous study; cited from earlier work
[7] = Selectivity index (SI) = IC50 cytotoxicity/IC50 against parasite, L6 cells vs P. falciparum

SMILES | IC50 (P. falciparum [1]) | IC50 (P. falciparum [2]) | IC50 (L. donovani) | IC50 ([3]; rat) | further results
CCN(CC)CCCC(C)Nc1ccnc2cc(Cl)ccc12 (stereo not shown) [Chloroquine, reference compound] | 0.006 µM |  |  |  | 
COC(=O)[C@@H]1CC23CCCN4CC[C@@]5(c6ccccc6NC15CC2)[C@@H]43 (stereo partly shown) [Compound 2, kopsinine] |  | > 200 µM |  |  | 
CC=C1C[N+]2(C)C3CC1C(CO)(C(=O)OC)C2Cc1c3[nH]c2ccccc12 (stereo not shown) [Compound 6, macusine A] | 26.9 µM |  | > 50 µM |  | IC50 ([3]; L6 cells (rat skeletal myoblasts), pure compounds and reference drug, rat skeletal myoblast L6 cells, mean of two independent assays, read-out: IC50 Cytotoxicity): 272 µM; selectivity ratio (P. falciparum [1]; [7]): 10.1
COC(=O)[C@@H]1CC23CCCN4CC[C@@]5(c6ccccc6N(C(=O)OC)C15CC2)[C@@H]43 (stereo partly shown) [Compound 11, pleiocarpine] | 26.6 µM | > 200 µM | > 50 µM | 156 µM | selectivity ratio (P. falciparum [1]): 5.8; reduced parasitemia (P. berghei): 28.5%
CC[C@H]1[C@@H]2CCN3CC[C@@]4(C(=C2C(=O)OC)Nc2ccccc24)[C@@H]13 [Compound 13, tubotaiwine] | 8.5 µM |  | > 50 µM | 197 µM | activity against T. cruzi (T. cruzi [4]): no activity; Selectivity index (SI) = IC50 cytotoxicity/IC50 against parasite (P. falciparum [1]; L6 cells vs P. falciparum): 23.2; selectivity ratio (P. falciparum [1]; [7]): 23.4; IC50 (L. infantum): 17.3 µM
CCC1C2CCN3CCC4(C(=C2C(=O)OC)Nc2ccccc24)C13 [Compound 15, methyl (7S,15R,20R,21S)-20-ethyl-5,6,14,15,21-hexahydro-15,21-ethanopyrrolo[5,21-d]carbazole-16-carboxylate-methane] | > 50 µM |  | > 50 µM |  | IC50 (T. b. rhodesiense): > 50 µM; IC50 (T. cruzi [5]): > 50 µM
C=C[C@H]1[C@H](O[C@@H]2O[C@H](CO)[C@@H](O)[C@H](O)[C@H]2O)OC=C(C(=O)OC)[C@H]1CC(=O)O [Compound 16, secoxyloganin] | > 50 µM |  | 25.3 µM | 294 µM | selectivity ratio (L. donovani; rat, L6 cells vs L. donovani, read-out: Selectivity index (SI) = IC50 cytotoxicity/IC50 against parasite): 11.6; IC50 (T. cruzi [6]): > 150 µM
CCCCCCCCCCCCCCCCOP(=O)([O-])OCC[N+](C)(C)C [Miltefosine, reference compound] |  |  | 0.554 µM |  | 
COc1cc([C@@H]2c3cc4c(cc3[C@H](O)[C@H]3COC(=O)[C@H]23)OCO4)cc(OC)c1OC [Podophyllotoxin, reference compound] |  |  |  |  | IC50 ([3]; pure compounds and reference drug, rat skeletal myoblast L6 cells, mean of two independent assays, read-out: IC50 Cytotoxicity): 0.027 µM
C/C=C1/CN2CC[C@@]34CN5c6c(cccc6[C@@]67CCN8CCC[C@@]9(CC[C@@]56[C@@H]9C)[C@H]87)[C@@]35[C@@H]2C[C@@H]1[C@@H](C(=O)OC)N5c1ccccc14 [pleiomutinine, reference compound] |  | 5 µM |  |  | 
